The text below walks through data of ChEMBL document CHEMBL6134874, “Identification of Nitric Oxide Donating Dasatinib Derivatives with Intraocular Pressure Lowering and Senolytic Activities” (J Med Chem, 2025).

Data set [1] is described as follows: Senolytics index ratio of IC50 for antiproliferative activity against mouse MEF cells to IC50 for inhibition of senescence in mouse MEF cells. The class given is functional.
Data set [2] is described as follows: Toxicity in C57BL/6J mouse assessed as effect on discernible conjunctival hyperemia administered as 10 mM eye drop measured up to 4 hrs. To be noted: in vivo, topical_or_ocular, 10000 µM.
The nature of data set [3]: Antiproliferative activity against mouse MEF cells assessed as inhibition of cell proliferation measured after 72 hrs by CCK-8 method. The class given is functional, cell-based. A general note: Tetrazolium assays rely on reduction of a dye to a coloured formazan, in cell work by metabolically active cells.
Data set [4] can be described thus: Inhibition of senescence in mouse MEF cells measured after 72 hrs by CCK-8 method. The format is functional, cell-based.
Data set [5] relates to Mus musculus. The experiment in a line: Anti-glaucoma activity against magnetic microbead-induced ocular hypertensive COHT C57BL/6J mouse model assessed as intraocular pressure lowering efficacy administered as 10 mM eye drop measured after 4 hrs. The format is functional.
In data set [6] the test system is HTM. In words: Upregulation of NO level in HTM cells at 5 uM incubated for 12 hrs by DAF-FM DA fluorescent probe based flow cytometry analysis. The format is functional, cell-based. To be noted: Homo sapiens. (Flow cytometry measures light scatter and fluorescence of single cells or particles in a stream.)
Data set [7] concerns Mus musculus. In words: Neuroprotective activity against magnetic microbead-induced ocular hypertensive COHT C57BL/6J mouse model assessed as improvement in N1 wave amplitude at 10 mM administered eye drop thrice a day for 10 days […]. The class given is functional, organism-based. To be noted: time 10.0 day.
Data set [8] concerns Mus musculus. The experiment in a line: Neuroprotective activity against magnetic microbead-induced ocular hypertensive COHT C57BL/6J mouse model assessed as increase in retinal ganglion cells (RGC) survival at 10 mM administered eye drop thrice a day for 10 days by immunofluorescence staining based analysis. The format is functional, organism-based. To be noted: time 10.0 day.

In data set [9] the test system is Mus musculus. The experiment in a line: Anti-glaucoma activity against magnetic microbead-induced ocular hypertensive COHT C57BL/6J mouse model assessed as reduction in intraocular pressure administered as 10 mM eye drop measured after 2 to 8 hrs. The class given is functional, organism-based. To be noted: time 2-8 hrs.
For data set [10], the system named is Mus musculus. In words: Neuroprotective activity against magnetic microbead-induced ocular hypertensive COHT C57BL/6J mouse model assessed as improvement in peak time of N1 wave at 10 mM administered eye drop thrice a day for 10 days […]. The format is functional, organism-based. The following applies: time 10.0 day.
Data set [11] deals with Mus musculus. The experiment in a line: Neuroprotective activity against magnetic microbead-induced ocular hypertensive COHT C57BL/6J mouse model assessed as improvement in visual acuity of mouse at 10 mM administered eye drop thrice a day for 10 days by Optokinetic Reflex Assay. The format is functional, organism-based. The following applies: time 10.0 day.
The subject of data set [12] is Mus musculus. The experiment in a line: Anti-glaucoma activity against magnetic microbead-induced ocular hypertensive COHT C57BL/6J mouse model assessed as reduction in fraction of SA-beta-Gal positive area in retina at 10 mM administered eye drop thrice a day for 10 days by SA-beta Gal staining based […]. The format is functional, organism-based. To be noted: time 10.0 day.

Data set [13] concerns Mus musculus. The experiment in a line: Anti-glaucoma activity against magnetic microbead-induced ocular hypertensive COHT C57BL/6J mouse model assessed as reduction in number of SA-betaGal positive cells per unit area of whole flat-mount retina at 10 mM administered eye drop thrice a day for 10 days by SA-beta Gal staining based […]. The following applies: time 10.0 day. The format is functional, organism-based.

The test system of data set [14] is Mus musculus. The experiment in a line: Neuroprotective activity against magnetic microbead-induced ocular hypertensive COHT C57BL/6J mouse model assessed as protection effect on retinal ganglion cells (RGC) at 10 mM administered eye drop thrice a day for 10 days. The class given is functional, organism-based. The following applies: time 10.0 day.
Data set [15] concerns HTM. In words: Anti-glaucoma activity in BLEO-induced senescence in HTM cells assessed as decrease in proportion of SA-beta-Gal positive cells at 5 uM measured for 48 hrs by senescence-associated galactosidase staining based microscopic analysis. The class given is functional, cell-based. To be noted: Homo sapiens.
In data set [16] the test system is Mus musculus. In words: Anti-glaucoma activity against magnetic microbead-induced ocular hypertensive COHT C57BL/6J mouse model assessed as reduction in intraocular pressure administered as 10 mM eye drop measured after 8 hrs. The class given is functional, organism-based.
Data set [17] has as its system HTM. In words: Upregulation of cGMP level in HTM cells at 5 uM incubated for 24 hrs by ELISA method. To be noted: Homo sapiens. The format is functional, cell-based. A general note: An ELISA detects its analyte on a solid surface through an enzyme-linked reagent.
Data set [18] has as its system Mus musculus. The experiment in a line: Anti-glaucoma activity against magnetic microbead-induced ocular hypertensive COHT C57BL/6J mouse model assessed as reduction in intraocular pressure administered as 10 mM eye drop measured after 2 to 4 hrs. The format is functional, organism-based. To be noted: time 2-4 hrs.

The structures appear in SMILES notation. Calls of active or inactive are those of the source. No cut-off for these calls is given here.

On to `CS(=O)(=O)O.CS(=O)(=O)O.CS(=O)(=O)O.Cc1nc(Nc2ncc(C(=O)Nc3c(C)cccc3Cl)s2)cc(N2CCN(CCOC(=O)CCC(=O)OCCOCCOc3no[n+]([O-])c3S(=O)(=O)c3ccccc3)CC2)n1`, for which the “Ratio IC50” value in data set [1] is given as 3.25. For the same molecule, the Activity entry in data set [2] is “Non-toxic”; with Mus musculus [5], 3.6 mmHg. Besides, the values for the IC50 in data set [3] (mef) and in [4] (mef) were 1.23 µM and 0.38 µM, respectively.

As to `Cc1nc(Nc2ncc(C(=O)Nc3c(C)cccc3Cl)s2)cc(N2CCN(CCOC(=O)COc3no[n+]([O-])c3C)CC2)n1`, the “Ratio IC50” value in data set [1] is recorded as 2.45. For the same molecule, the IC50 (usually the midpoint of a concentration-inhibition curve) in data set [3] (Mus musculus, MEF, 72 h) turned out to be 1.28 µM; in [4] (Mus musculus, MEF, 72 h), 0.52 µM.

In the case of `Cc1nc(Nc2ncc(C(=O)Nc3c(C)cccc3Cl)s2)cc(N2CCN(CCOC(=O)CCC(=O)OCCCCCO[N+](=O)[O-])CC2)n1`, in data set [1], the “Ratio IC50” value came to 0.4. Also, the IC50 in [3] (Mus musculus, MEF, 72 h) was found to be 1.31 µM; in [4] (Mus musculus, MEF, 72 h), 3.29 µM.

On to `Cc1nc(Nc2ncc(C(=O)Nc3c(C)cccc3Cl)s2)cc(N2CCN(CCO[N+](=O)[O-])CC2)n1`, for which the “Ratio IC50” value in [1] is listed as 1.29. Besides, the IC50 is 1.53 µM in data set [3] (Mus musculus, MEF, 72 h) and 1.19 µM in data set [4] (Mus musculus, MEF, 72 h). Further, the outcome with HTM [6] was Active.

In the case of `Cc1nc(Nc2ncc(C(=O)Nc3c(C)cccc3Cl)s2)cc(N2CCN(CCOC(=O)CCC(=O)OCCOc3no[n+]([O-])c3C)CC2)n1`, the “Ratio IC50” value in [1] was determined as 2.73. Besides, the IC50 was found to be 1.34 µM in data set [3] (Mus musculus, MEF, 72 h) and 0.49 µM in [4] (Mus musculus, MEF, 72 h).

Regarding `Cc1nc(Nc2ncc(C(=O)Nc3c(C)cccc3Cl)s2)cc(N2CCN(CCOC(=O)CCC(=O)OCCO[N+](=O)[O-])CC2)n1`, the “Ratio IC50” value in data set [1] is 4.3. In addition, the IC50 in data set [3] (Mus musculus, MEF, 72 h) worked out at 1.75 µM; in data set [4] (Mus musculus, MEF, 72 h) it was 0.41 µM.

As for `Cc1nc(Nc2ncc(C(=O)Nc3c(C)cccc3Cl)s2)cc(N2CCN(CCOC(=O)CCC(=O)OCCCO[N+](=O)[O-])CC2)n1`, the “Ratio IC50” value in [1] is given as 3.13. Also, the IC50 in data set [3] (Mus musculus, MEF, 72 h) was 1.42 µM; in data set [4] (Mus musculus, MEF, 72 h) it was 0.45 µM.

`Cc1nc(Nc2ncc(C(=O)Nc3c(C)cccc3Cl)s2)cc(N2CCN(CCOC(=O)CCC(=O)OCCOCCOc3no[n+]([O-])c3S(=O)(=O)c3ccccc3)CC2)n1` [listing 1 of 2 here]: in data set [1], the “Ratio IC50” value stood at 2.28. Besides, the 50% inhibitory concentration (IC50) in data set [3] (Mus musculus, MEF, 72 h) was found to be 1.1 µM; in [4] (Mus musculus, MEF, 72 h), 0.48 µM.

As for `Cc1nc(Nc2ncc(C(=O)Nc3c(C)cccc3Cl)s2)cc(N2CCN(CCOC(=O)CCC(=O)OCCCCOc3no[n+]([O-])c3S(=O)(=O)c3ccccc3)CC2)n1`, in [1], the “Ratio IC50” value came out at 1.9. The IC50 worked out at 2.35 µM in data set [3] (Mus musculus, MEF, 72 h) and 1.24 µM in [4] (Mus musculus, MEF, 72 h).

On to `Cc1nc(Nc2ncc(C(=O)Nc3c(C)cccc3Cl)s2)cc(N2CCN(CCO)CC2)n1` [DASATINIB ANHYDROUS], for which the “Ratio IC50” value in [1] worked out at 5.55. For the same molecule, the result in the data set with Mus musculus [7], in the data set on Mus musculus [8], in the data set on Mus musculus [10], with Mus musculus [12], in the data set with Mus musculus [13] and with Mus musculus [14] was Active. Also, the outcome in the data set with HTM [15] was Active. Moreover, the Activity result in data set [2] is recorded as “Non-toxic”. For the same molecule, the IC50 in data set [3] (Mus musculus, MEF, 72 h) is 2.85 µM; in [4] (Mus musculus, MEF, 72 h), 0.51 µM. The outcome in the data set on Mus musculus [9] and with Mus musculus [11] was inactive.

`Cc1nc(Nc2ncc(C(=O)Nc3c(C)cccc3Cl)s2)cc(N2CCN(CCOC(=O)CCC(=O)O[C@@H]3CO[C@H]4[C@@H]3OC[C@@H]4O[N+](=O)[O-])CC2)n1`: the “Ratio IC50” value in data set [1] turned out to be 0.61. For the same molecule, the IC50 in [3] (Mus musculus, MEF, 72 h) was determined as 0.33 µM; in [4] (Mus musculus, MEF, 72 h) it was 0.54 µM.

On to `CS(=O)(=O)O.CS(=O)(=O)O.CS(=O)(=O)O.Cc1nc(Nc2ncc(C(=O)Nc3c(C)cccc3Cl)s2)cc(N2CCN(CCOC(=O)CCC(=O)OCCCCOc3no[n+]([O-])c3S(=O)(=O)c3ccccc3)CC2)n1`, for which the “Ratio IC50” value in data set [1] was determined as 1.76. For the same molecule, the IC50 in data set [3] (mef) was 1.31 µM; in [4] (mef) it was 0.75 µM.

On to `Cc1nc(Nc2ncc(C(=O)Nc3c(C)cccc3Cl)s2)cc(N2CCN(CCOC(=O)CCC(=O)OCCCCO[N+](=O)[O-])CC2)n1`, for which, in data set [1], the “Ratio IC50” value was 1.67. For the same molecule, the IC50 in [3] (Mus musculus, MEF, 72 h) was 1.78 µM; in data set [4] (Mus musculus, MEF, 72 h), 1.07 µM.

Take `Cc1nc(Nc2ncc(C(=O)Nc3c(C)cccc3Cl)s2)cc(N2CCN(CCOC(=O)CCC(=O)OCCOCCOc3no[n+]([O-])c3S(=O)(=O)c3ccccc3)CC2)n1` [listing 2 of 2 here]: the outcome in the data set on Mus musculus [16] was inactive. Besides, the outcome in the data set with HTM [17], in the data set on Mus musculus [7], in the data set with HTM [6], with Mus musculus [18], with Mus musculus [10] and in the data set with Mus musculus [11] was Active. The result with Mus musculus [12], in the data set on Mus musculus [13] and in the data set on HTM [15] was Active. The Activity result in the data set on Mus musculus [8] was “Active; Compound Showed More Pronounced Effect Then Dasatinib”; in the data set with Mus musculus [14] it was “Active; Compound Showed Significant Effect Than Dasatinib”.
